Measured values from patent US12714702B2, “Compositions and methods for treating or preventing pulmonary hypertension” (priority 2020, dated 2026).

What was measured:
[1] = tested on: MCT-induced rodent model of pulmonary hypertension; assay: Monocrotaline (MCT) induced therapeutic rat model of pulmonary hypertension, hemodynamics; assay type: in vivo; settings: MCT rats, QA 10 mg/kg s.c. once-a-day for 10 days starting 3 weeks after MCT
Method: Adult male SD rats were injected with MCT (50 mg/kg) by subcutaneous injection. QA administration was initiated 21 days (3 weeks) after MCT administration, once-a-day by subcutaneous route at 10 mg/kg for 10 days. […] Data represent mean±SEM (n=5). *p<0.05.
(§1) Preclinical in-vivo studies for QA were earlier performed at a dose of 10 mg/kg once-a-day in monocrotaline (MCT) induced therapeutic PAH model. Hemodynamic parameters were collected and lung tissues were also collected and were sectioned for visualizing the impact of QA treatment on various PAH biomarkers in-vivo.
To determine the therapeutic activity of QA against PH, the drug was tested using chronic hemodynamic studies in a monocrotaline (MCT)-induced rodent model of pulmonary hypertension. MCT induction is a well established preliminary model, with a single subcutaneous injection of MCT producing chronic PH-like symptoms in rats over a course of 3-4 weeks. Briefly, MCT was subcutaneously injected in adult male Sprague Dawley (SD) rats at 50 mg/kg, and rats were housed for 3 weeks with free access to food and water. […] At the end of day 10, animals were anesthetized to determine right ventricular systolic pressure (RVSP) by RV catheterization, and RV hypertrophy (RVH) was measured by collecting the heart-lung blocks.

[2] = tested on: Ki67, PCNA, vWF, α-SMA in SU5416/Hypoxia-induced PAH animal lung tissue; assay: SU5416/hypoxia model, immunofluorescence of lung tissue; assay type: in vivo, rat; settings: SU5416/hypoxia rats
Method: as §1, with “a SU5416/Hypoxia-induced preventative/prophylactic” for “monocrotaline (MCT) induced therapeutic”
Paraffin embedded tissue sections for control animals, hypoxia induced PAH animals and QA treated animals were further subjected to immunofluorescent staining to analyze expression levels of essential molecular markers. Deparaffinization of tissues was done by exposing tissue sections to a solution of xylene for 3 minutes twice followed by washing with 200 proof absolute 99.8% ethanol and 50% ethanol. Tissues were further washed with 1×PBS twice to ensure complete deparaffinization. Similar protocol was followed hereon for immunofluorescent staining of tissue sections.

[3] = tested on: primary human PASMCs; assay: Caspase-3 assay (apoptotic induction); assay type: cell-based; settings: 6-hour treatment, 5 and 10 μM, concentration-dependent
Method: Caspase-3 level in SMC II cells was evaluated using EnzCheck™ Caspase-3 assay kit (ThermoFisher Scientific, Waltham, MA, USA) following the manufacturer's protocol. Briefly, upon 90% confluency, SMC II cells were harvested and seeded in 100 mm TC treated culture dishes at a density of 250,000 cells/well and allowed to adhere overnight. Following day, cells were treated with QA (5- and 10-μM) for 6 hours followed by harvesting. Harvested cells were lysed using a lysis buffer for 30 minutes on ice. The cells were centrifuged, and supernatant was used to analyze levels of a caspase-3 substrate aminomethylcoumarin (AMC)-derived substrate Z-DEVD-AMC (fluorescence measurement at 360 ex/460 em).
An apoptotic induction assay, i.e., Caspase-3 assay was performed to understand QA's impact on cellular apoptosis in primary human PASMCs following 6-hour treatment. […] Moreover, another apoptotic induction assay, i.e., Annexin V FITC assay was also used to measure the effects of QA on serum-starved bovine PASMCs.

[4] = tested on: bovine HAPASMC; assay: Anti-proliferative efficacy in high-altitude bovine PASMC; assay type: cell-based; settings: inherently highly proliferating bovine HAPASMC, 1.5-5.0 μM, time- and concentration-dependent
Method: (§2) Data represent mean±SD (n=5) repeated over 3 experiments. *p<0.05.
(§3) Human or bovine PASMC were treated with varying concentrations of QA (1.5-, 3.1-, and 6.2-μM). Cellular proliferation was measured at day 1, day 3 and day 5 by following the manufacturer's protocol. Briefly, a reagent mix of nucleic acid stain and background suppressor were added in PBS followed by addition of the mix in treatment wells (100 μL/well). The plates were incubated at 37° C./5% CO2 for one hour followed by evaluation of fluorescence at 485 ex/535 em. Proliferation inhibition was analyzed relative to control wells on each time point. Data was averaged from two trials with n=6 for SMC II and one trial of n=4 for SMC III.
(§4) In-vitro studies to measure anti-proliferative activity of QA against pulmonary hypertension were performed using primary human PASMC (FIG. 3), primary bovine PASMC (FIG. 4) and high altitude PASMC (HAPASMC) (FIG. 4). HAPASMC, due to prolonged hypoxia exposure, are known to be hyper-proliferative in regular culture conditions, while hyper-proliferation was induced in PASMC cells by 24 hour serum starvation, or by exposure to 5-hydroxytryptamine (5-HT). […]

[5] = tested on: pulmonary arterioles of SU5416/hypoxia-induced PAH animals; assay: SU5416/hypoxia model, muscularization, trichrome staining and medial wall thickness; assay type: in vivo, rat
Method: Adult male rats were injected with SU5416 (20 mg/kg) subcutaneously and were kept under hypoxia (10% O2) for 3 weeks. QA was administered once-a-day intraperitoneally at a dose of 10 mg/kg for 21 days starting from Day 1. […] Data represent mean±SD (n=4-5). *p<0.05.
At the end of treatment period with QA, animals were sacrificed. Chest was surgically opened to expose rat lungs. Lung tissues were collected, and blinded tissues were sectioned by Reveal Bio (San Diego, CA) at 5 μm thickness. 2 tissue sections for each animal were earmarked for Trichrome staining; and 8 more sections were provided blank for custom staining.
Tissue sections were stained using trichrome staining to visualize pulmonary arteries for all treatment and control groups. Stained lung sections were imaged using Zeiss Axio Scope A1 microscope equipped with Axiocam 506 color camera and Zeiss Zen 2.3 software. Medial wall thickness for similar sized pulmonary arteries was measured using a Motic BA210 microscope and measurements were made using Motic Image plus 2.0 software. Five pulmonary artery walls were analyzed per animal (n=2 to 5)
After 3 weeks, hemodynamic studies were performed.

[6] = tested on: SU5416/hypoxia-induced PAH model; settings: SU5416/hypoxia rats, QA 10 mg/kg i.p. once-a-day for 3 weeks from Day 1
[7] = tested on: serum-starved bovine PASMC; assay: Anti-proliferative efficacy in serum-starved bovine PASMC; assay type: cell-based; settings: 1.5-5.0 μM, time- and concentration-dependent
Method: as §2, §3, §4

With CCN(CC)CCCC(C)Nc1c2ccc(Cl)cc2nc2ccc(OC)cc12 (stereo not shown) [QA, quinacrine] the “right ventricular systolic pressure (RVSP)” value [1] was 39.9±1.8 mm Hg, the “expression of Ki67” value [2] was “reduction in expression” and the “expression of PCNA” value [2] was “reduction in expression”. For the same molecule, the “expression of vWF” value [2] was “did not show any reduction in expression”, the “expression of α-SMA” value [2] was “did not show any reduction in expression” and the caspase-3 levels [3] was “increased caspase-3 levels”. For the same molecule, the proliferation [4] was “significantly inhibits proliferation”, the “medial wall thickness in pulmonary arterioles” value ([5]; SU5416/hypoxia rats (FIG. 14D)) was “significant reduction” and the “vessel muscularization (less completely muscularized blood vessels than control)” value ([5]; SU5416/hypoxia rats, pulmonary arterioles) was 3.5 folds. The “collagen and muscular deposition in pulmonary arterioles” value ([5]; SU5416/hypoxia rats, trichrome staining) was “significant reduction”, the “reduction in medial wall thickness of pulmonary arteries” value ([5]; compared to SU5416/hypoxia-induced PAH animal tissue sections (FIG. 16)) was “about 2 fold” and the RVSP [6] was 45.6±7.9 mmHg. The proliferation [7] was “significantly inhibits proliferation”.
